Experiments:
Test in all cases: relative viability (nuclei count vs DMSO), 5 days (fraction); higher = more cells survive
[1] = compound: CC1(C)CCC(c2ccc(Cl)cc2)=C(CN2CCN(c3ccc(C(=O)NS(=O)(=O)c4ccc(N[C@H](CCN5CCOCC5)CSc5ccccc5)c(S(=O)(=O)C(F)(F)F)c4)cc3)CC2)C1 [Navitoclax]
Summary of the method: (§1)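 On vehicle-anchored 1536-well plates, lung cancer cell lines held overnight at 37 °C were pinned with five library-drug doses (not always all listed) spaced by √10. With no medium change over 5 days, they were then fixed, permeabilised and Hoechst-stained in one step and imaged at 4×. MetaXpress counted nuclei, and viability is the median across plates of treated-well over vehicle-well nuclei. Acceptance needed control CV below 25% and at least one doubling.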

[2] = compound: CCCCCCCC[C@H]1[C@@H](C(=C)C(=O)O1)C(=O)O [C-75]
Summary of the method: as §1

[3] = compound: NC(=O)Nc1cc(-c2cccc(F)c2)sc1C(=O)N[C@H]1CCCNC1 [AZD7762]
Summary of the method: as §1

[4] = compound: O=C(O)c1ccc(-c2c[nH]c3ncc(-c4ccccc4)cc23)cc1C1CCCC1
Summary of the method: as §1

[5] = compound: Oc1nc(-c2ccc(C(F)(F)F)cc2)nc2c1CSCC2 [XAV939]
Summary of the method: as §1

Cell Line | relative viability ([1]; 0.005 µM) | relative viability ([1]; 0.01581 µM) | relative viability ([1]; 0.05 µM) | relative viability ([1]; 0.1581 µM) | relative viability ([1]; 0.5 µM) | relative viability ([1]; 0.5 µM, anchor plate) | relative viability ([2]; 0.08 µM) | relative viability ([2]; 0.253 µM) | relative viability ([2]; 0.8 µM) | relative viability ([2]; 2.53 µM) | relative viability ([2]; 8 µM) | relative viability ([3]; 0.01 µM) | relative viability ([3]; 0.03162 µM) | relative viability ([3]; 0.1 µM) | relative viability ([3]; 0.2 µM, anchor plate) | relative viability ([3]; 0.3162 µM) | relative viability ([3]; 1 µM) | relative viability ([4]; 0.04 µM) | relative viability ([4]; 0.1265 µM) | relative viability ([4]; 0.4 µM) | relative viability ([4]; 1.265 µM) | relative viability ([5]; 0.08 µM) | relative viability ([5]; 0.253 µM) | relative viability ([5]; 0.8 µM) | relative viability ([5]; 2.53 µM)
H3255 | 0.979 | 1.17 | 0.87 | 0.92 | 0.786 | 0.529 | 0.963 | 0.973 | 0.945 | 0.901 | 0.995 | 1.05 | 1.04 | 1.04 | 0.971 | 0.958 | 0.856 | 0.954 | 1.04 | 0.97 | 0.944 | 1.06 | 0.892 | 0.814 | 0.895
HARA | 0.84 | 1.26 | 0.811 | 0.911 | 1.01 | 1.13 | 0.989 | 0.963 | 0.858 | 0.788 | 1.03 | 0.986 | 0.946 | 0.999 | 0.367 | 0.88 | 0.368 | 0.955 | 1.23 | 0.846 | 1.02 | 1.04 | 0.904 | 0.825 | 0.764
HCC-15 | 0.986 | 1.14 | 0.838 | 0.99 | 0.947 | 0.696 | 1 | 0.965 | 0.968 | 0.798 | 0.925 | 1.02 | 0.907 | 1.02 | 1.24 | 0.969 | 1.03 | 1.03 | 1.07 | 0.965 | 0.586 | 1.14 | 0.932 | 0.96 | 0.971
HCC-44 | 0.897 | 0.906 | 0.977 | 0.849 | 0.96 | 0.98 | 1 | 0.991 | 0.908 | 0.824 | 1.05 | 1.01 | 0.958 | 1.06 | 1 | 0.874 | 0.914 | 0.97 | 0.99 | 0.973 | 0.928 | 0.962 | 0.899 | 0.915 | 0.929
HCC-78 | 1.03 | 1.11 | 0.729 | 0.958 | 1.02 | 0.737 | 0.948 | 0.882 | 0.817 | 0.761 | 0.95 | 1.02 | 1.14 | 0.978 | 0.706 | 0.95 | 0.552 | 0.929 | 1.24 | 1.1 | 0.864 | 0.923 | 0.8 | 0.919 | 0.667
HCC-366 | 1.04 | 1.05 | 0.728 | 0.968 | 1.07 | 1.03 | 0.974 | 1.11 | 0.975 | 0.763 | 0.982 | 0.981 | 1.03 | 0.998 | 0.289 | 0.886 | 0.393 | 1 | 1.02 | 0.998 | 0.971 | 0.971 | 0.9 | 1 | 1.01
HCC-827 | 1.07 | 1.12 | 0.953 | 1.04 | 1.05 | 1.02 | 1.01 | 0.953 | 1.01 | 0.976 | 1.07 | 1.05 | 1.08 | 1.08 | 0.23 | 1.1 | 0.731 | 0.96 | 1.07 | 0.993 | 0.863 | 1.04 | 1.06 | 0.991 | 1.02
HOP-62 | 0.966 | 1.06 | 0.968 | 0.926 | 1.03 | 1 | 1.02 | 1.01 | 1.01 | 0.891 | 1.02 | 1.04 | 0.999 | 1.17 | 0.639 | 1.02 | 0.939 | 1.08 | 1.07 | 0.964 | 0.923 | 1.13 | 0.996 | 0.891 | 0.893
IA-LM | 0.941 | 1.07 | 0.915 | 1 | 0.977 | 0.755 | 0.917 | 1.14 | 0.87 | 0.676 | 0.853 | 1.12 | 1.02 | 1.15 | – | 1.01 | 0.708 | 0.921 | 1.1 | 1.07 | 0.887 | 0.937 | 0.864 | 0.935 | 0.701
LC-2-ad | 0.961 | 1.07 | 0.925 | 0.948 | 0.991 | 0.445 | 1.05 | 1.02 | 0.93 | 0.789 | 0.986 | 0.992 | 1.1 | 0.998 | 0.86 | 0.908 | 0.644 | 0.973 | 1.1 | 0.933 | 0.692 | 1.03 | 0.904 | 0.953 | 1
LCLC-97TM1 | 0.966 | 1.06 | 0.915 | 0.94 | 1.02 | 0.502 | 0.963 | 1.09 | 0.95 | 0.813 | 0.622 | 1.05 | 0.98 | 1.11 | 0.281 | 0.926 | 0.588 | 1.04 | 0.957 | 0.98 | 0.901 | 0.975 | 0.764 | 0.879 | 0.944
LCLC-103H | 1.02 | 1.03 | 0.83 | 1.04 | 1.05 | – | 0.919 | 0.998 | 0.909 | 0.788 | 1.03 | 1.03 | 0.974 | 1.02 | 0.796 | 0.907 | 0.992 | 1.01 | 1.08 | 0.991 | 1.09 | 1.08 | 0.914 | 0.92 | 0.831
LK-2 | 1.02 | 1.03 | 1.11 | 0.997 | 1.02 | 0.886 | 0.911 | 1.25 | 1.02 | 0.841 | 0.706 | 1.05 | 1.12 | 0.955 | 0.467 | 0.938 | 0.776 | 1 | 1.06 | 0.872 | 0.944 | 1.06 | 0.877 | 1.01 | 0.755

From the supplement of paper PMC10307832
